# Data from patent US6995164B2, “Methods of treating tumors” (Rhode Island Hospital, priority 1999, dated 2006).
# “Also recorded” adds a separate entry of the source.
# Assays:
# SKOV-3 [1] = assay: Cell cycle distribution and sub-G0/G1 DNA debris by flow cytometry (propidium iodide); type: cell-based, human; conditions: 48 h exposure
# Method: (§1) Three×10^5 cells were seeded in plastic tissue culture flasks. […] Control cultures received an appropriate volume of Kollidine-17P. […] The percentage of DNA debris in the sub-G0/G1 region was assessed using cytofluorometric techniques. Each bar represents the mean (±SE) of three determinations. **p≦0.01, ***p≦0.001, ****p≦0.0001
# (§2) For flow cytometry studies, 1×10^6 PA-1, SKOV-3, or NIH-3T3 cells were incubated for 24 h in appropriate media containing serum. […] Control cultures for each cell line were incubated in media containing 40 μl of 5% Kollidon 17PF alone. Forty-eight hours later, all cells were harvested by trypsinization and prepared for cytofluorometric analysis by standard methods. For example, harvested cells were resuspended in ice cold phosphate-buffered saline at a final cell density of 2×10^6 cells/ml. The cells then were stained for 30 min at room temperature in the dark with a solution of 0.05 mg/ml propidium iodide, 0.6% Igepal, and 1% sodium citrate. Flow cytometry was performed by FACScan (Becton Dickinson, Plymouth, England) using the ModFit LT program (Becton Dickinson). […]
# (§3) Three×10^5 cells were seeded in plastic tissue culture flasks. […] After an additional 48 h, cells were harvested, stained with propidium iodide, and cell cycle distribution assessed using cytofluorometric techniques. […]
# [2] = system: panel of human and murine neoplastic cell lines; assay: Cell growth inhibition across the cell line panel; type: cell-based; conditions: 72 h, 3 d exposure; panel of human and murine tumor cell lines; read-out: IC50s, range over all cell lines evaluated
# Method: Included in the tumor cell line panel were ovarian tumor cells (PA-1 and SKOV-3), colon tumor cells (HCT-8, HCT-15 and HT-29), lung tumor cells (H-157, A-549 and H-596), prostate tumor cells (DU-145), glioma cells (U-251), and melanoma (MNT-1). The murine melanoma B16F10 cell line was also tested. These cell lines readily available, e.g., from the American Type Culture Collection (ATCC). Cells were cultured in appropriate growth medium at 37° C. in a humidified incubator in an atmosphere of 5% CO2. Under these growth conditions, the doubling time of all cell lines was 20–28 h.
# One ml of this cell suspension was added to each well of a 12 well cell culture plate that contained 3 ml of appropriate media plus serum. […] Control wells received 40 μl of 5% Kollidon 17PF alone. Seventy-two hours later, all cells were harvested by trypsinization and cell number determined electronically using a Coulter Model Z1 particle counter (Coulter Corp., Miami, Fla.) to assess cell growth inhibition. Each experiment was performed in duplicate and repeated a minimum of three times.
# Cells were seeded at a density of 1–5×10^4 cells in each well of a 6 well tissue culture flask. […] After three days, cells were harvested by trypsinization and cell number determined electronically. Cell growth inhibition was determined by comparison to non-Taurolidine exposed control cultures. […]
# [3] = system: TNF; interleukins 1, 6, and 10; VEGF; TGF; assay: Angiogenesis factors in patients with metastatic colon cancer; type: in vivo, human; conditions: taurolidine-treated subjects compared to placebo
# Method: Patients with metastatic colon cancer were treated with taurolidine and several factors controlling angiogenesis were measured.
# PA-1 [4] = assay: Cell cycle distribution and sub-G0/G1 DNA debris by flow cytometry (propidium iodide); type: cell-based, human
# Method: Three×10^5 cells were seeded in plastic tissue culture flasks. […] Control cultures received an appropriate volume of Kollidine-17P. […] The percentage of DNA debris in the sub-G0/G1 region was assessed using cytofluorometric techniques.
# For flow cytometry studies, 1×10^6 PA-1, SKOV-3, or NIH-3T3 cells were incubated for 24 h in appropriate media containing serum. […] Control cultures for each cell line were incubated in media containing 40 μl of 5% Kollidon 17PF alone. Forty-eight hours later, all cells were harvested by trypsinization and prepared for cytofluorometric analysis by standard methods. For example, harvested cells were resuspended in ice cold phosphate-buffered saline at a final cell density of 2×10^6 cells/ml. The cells then were stained for 30 min at room temperature in the dark with a solution of 0.05 mg/ml propidium iodide, 0.6% Igepal, and 1% sodium citrate. Flow cytometry was performed by FACScan (Becton Dickinson, Plymouth, England) using the ModFit LT program (Becton Dickinson). Statistical analysis was performed with the Kruskal Wallis non-parametric ANOVA test followed by Dunn's multiple comparisons test using Instat.
# as §3
# [5] = Taurolidine-induced toxicity, 3 consecutive daily i.p. bolus injections; type: in vivo
# Method: (§4) Studies to assess in vivo toxicity and therapeutic effectiveness were carried out in 6–12 week old female homozygous athymic (Hsd:athymic nude nu/nu) mice obtained from Harlan (Indianapolis, Ind.).
# Control animals received 1 ml injections of 5% Kollidon 17PF alone. Animals were examined daily and body weight recorded twice weekly. A reduction in body weight of greater than 10% was considered significant. The maximally tolerated dose (MTD) was considered to be the dose which produced ˜10% mortality.
# During the injection regimen, and daily thereafter for 30 d, mice were weighed and examined. Experiments were repeated a minimum of three times and mortality and weight loss data pooled.
# PA1 human ovarian cells = assay: Cell cycle kinetics and DNA fragmentation after 24-hour exposure; type: cell-based
# Description: (§5) This DNA fragmentation was not observed in normal 3T3 cells.
# 3T3 cells = assay: as above; type: cell-based
# Description: as §5
# [6] = system: HL-60 human promyelocytic cell line; assay: Apoptosis induction in non-adherent cancer cell model; type: cell-based
# glioblastoma multiforma = assay: Clinical use, intravenous infusion in advanced recurrent glioblastoma multiforma; type: in vivo, human; conditions: 20 g i.v. over 6 hours twice a week, at least one 5 week regimen
# Method: Four patients, which were diagnosed with advanced recurrent glioblastoma multiforma, were treated with taurolidine. The prognosis for this group of patients was determined to be approximately 8 weeks of survival.
# NIH-3T3 [7] = assay: Western-blot analysis of PARP cleavage; type: cell-based, murine; conditions: 24 h exposure to 50 or 100 μM
# Method: (§6) Two×10^6 cells were seeded in 150 cm^2 tissue culture flasks. […] After an additional twenty-four hours, cells were harvested, cell number determined, and aliquots derived from equal cell numbers generated from each exposure condition. Total proteins from these whole cell lysates were separated by SDS-PAGE and transferred to nitrocellulose filters. Filters were then immunoblotted to detect intact PARP protein and cleavage fragments by using the clone C-2-10 mouse monoclonal anti-PARP antibody (Zymed Laboratories, San Francisco, Calif.). The resulting protein-antibody complexes were visualized by chemiluminescence techniques.
# (§7) Western-blot analysis was used to assess of PARP cleavage. Two×10^6 cells were seeded into separate 75 cm^2 tissue culture flasks containing 20 ml of tissue culture media plus serum. […] Twenty-four hours after the addition of Taurolidine, cells were harvested, cell number determined, and aliquots containing an equal cell number were generated from each exposure condition. Total proteins from whole cell lysates generated from these aliquots were separated by SDS-PAGE and electrotransferred to nitrocellulose filters. Filters were then processed to detect intact PARP protein and cleavage fragments by using the clone C-2-10 mouse monoclonal anti-PARP antibody (Zymed Laboratories, San Francisco, Calif.). […]
# PA-1 [8] = assay: Western-blot analysis of PARP cleavage; type: cell-based, human; conditions: 24 h exposure to 50 or 100 μM
# Method: as §6, §7
# SKOV-3 [9] = assay: Western-blot analysis of PARP cleavage; type: cell-based, human; conditions: 24 h exposure to 50 or 100 μM
# Method: as §6, §7
# [10] = system: normal murine bone marrow cultures; assay: Cytotoxic and apoptotic activity in normal primary cells; type: cell-based
# Description: This observation was confirmed using normal (non-tumor) primary cells derived from animals, which are known to be free of tumors.
# [11] = system: aerobic and anaerobic bacterial strains; conditions: depending on the bacterial strain evaluated; cited from earlier work
# [12] = system: MDR-transfected glioblastoma cells; assay: Cytotoxicity to drug resistant tumor cells
# Description: Glioblastoma cells were transfected with a gene encoding multiple drug resistance (MDR).
# [13] = system: SKOV-3 human ovarian tumor xenografts; assay: Therapeutic effectiveness against i.p. human ovarian tumor xenografts; type: in vivo, female nude mice
# Description: Fourteen days following the final Taurolidine injection, mice in all groups were sacrificed and the peritoneal cavity examined for the presence of tumors. Each experimental was repeated three times and the pooled number of animals in each group ranged from 15–21.
# Fourteen days following the final Taurolidine injection, mice in all groups were sacrificed, i.p. ovarian tumor xenografts removed and tumor weighed. Each experiment was repeated three times and the pooled number of animals in each group ranged from 15–21. Each bar represents the mean (±SE) tumor weight of 15–21 animals. ***p≦0.001, ****p≦0.0001.
# as §4
# To evaluate therapeutic effectiveness, mice received a single intraperitoneal injection of 5×10^6 SKOV-3 cells in a volume of 0.5 ml. Immediately thereafter, mice were randomly divided into treatment groups of 7 animals. […] Control animals received 1 ml injections of 5% Kollidon 17PF alone. Animals were examined daily and body weight recorded twice weekly. […] The mean tumor weight for each treatment group was calculated and statistical analysis of differences in the mean tumor weight between treatment groups employed the Student's t-test. p-values of ≦0.05 were considered significant.
# [14] = Clinical tolerability (i.p. lavage in recurrent ovarian tumors, systemic in glioblastoma); type: in vivo, human; conditions: i.p. lavage after surgery (ovarian) or systemic (glioblastoma)
# Method: Taurolidine was administered by i.p. lavage immediately following surgery for removal of recurrent ovarian tumors. For patients with glioblastoma, Taurolidine was administered systemically.
# tumor cells = assay: Apoptosis of tumor cells in culture; type: cell-based
# [15] = system: human ovarian tumor cells; assay: Growth of established tumor cell colonies in vitro; type: cell-based; conditions: 24-hour exposure to 50 μM
# Method: (§8) Parallel studies were carried out to assess whether disruption of cell adhesion played a role in the cytotoxic activity.
# NIH-3T3 [16] = assay: Cell cycle distribution and sub-G0/G1 DNA debris by flow cytometry (propidium iodide); type: cell-based, murine; conditions: 48 h exposure
# Method: as §1, §2, §3
# human cancer cell lines = assay: In vitro cytotoxic activity survey of human cancer cell lines; type: cell-based
# Method: as §8
smiles,measurement,setting,value
"O=S1(=O)CCN(CN2CCS(=O)(=O)NC2)CN1 [Taurolidine, Bis-(1,1-dioxoperhydro-1,2,4-thiadiazinyl-4)methane]",effect on cell cycle distribution (in words),SKOV-3 [1],concentration-dependent decrease in the percentage of cells in G0/G1 but increased the percentage of cells in both the S-phase and G2/M
same,DNA debris in the sub-G0/G1 region,SKOV-3 [1]; concentration-dependent,significantly increased DNA debris in the sub-G0/G1 region; also recorded: appearance of DNA debris in the sub-G0G1 region
same,IC50,[2],9.6 to 34.2 µM
same,"factors controlling the growth of blood vessels (TNF; interleukins 1, 6, 10; VEGF; TGF)",[3],decreased
same,effect on cell cycle distribution (in words),PA-1 [4]; 48 h exposure to up to 100 μM,little effect on cell cycle distribution
same,DNA debris in the sub-G0/G1 region,"PA-1 [4]; 48 h exposure, concentration-dependent",significantly increased DNA debris in the sub-G0/G1 region; also recorded: appearance of DNA debris in the sub-G0G1 region
same,mortality (%),[5]; 10 mg/mouse/inj i.p. on 3 consecutive days,6%
same,mortality (%),[5]; 20 mg/mouse/inj i.p. on 3 consecutive days,13%
same,mortality (%),[5]; 25 mg/mouse/inj i.p. on 3 consecutive days,47%
same,mortality (%),[5]; 30 mg/mouse/inj i.p. on 3 consecutive days,100%
same,maximally tolerated dose (MTD),"[5]; mouse, in vivo, ip",20 mg/mouse
same,cell cycle kinetics,PA1 human ovarian cells; PA1,significantly reduced the percentage of cells in both the S- and G2/M-phases
same,DNA fragmentation,"PA1 human ovarian cells; human ovarian tumor cells, 50 μM, flow cytometry and agarose-gel electrophoresis",induced a high degree of DNA fragmentation; also recorded: overt DNA fragmentation
same,cell cycle kinetics,3T3 cells,significantly reduced the percentage of cells in both the S- and G2/M-phases
same,DNA fragmentation,"3T3 cells; 50 μM, flow cytometry and agarose-gel electrophoresis",not observed; also recorded: not apparent
same,exposure time that induces apoptosis,[6]; HL-60,≤ 90 min
same,apoptosis pathway events,[6]; non-adherent cancer cell models,"activation of caspases 3, 8 and 9"
same,patients in whom the tumor mass decreased or stayed the same,glioblastoma multiforma,3 out of the 4
same,PARP cleavage,NIH-3T3 [7],little evidence of this proteolytic event
same,PARP cleavage,NIH-3T3 [7]; listed as taurolidine,PARP cleavage was not evident
same,PARP cleavage,PA-1 [8],induced PARP cleavage; also recorded: resulted in PARP cleavage
same,PARP cleavage,SKOV-3 [9],induced PARP cleavage; also recorded: resulted in PARP cleavage
same,concentration required to inhibit cell proliferation,[10],concentrations in the mM range were required to inhibit cell proliferation
same,minimum concentration required to inhibit bacterial cell growth (MIC),[11],0.01 to 1 mg/mL
same,cytotoxicity,"[12]; MDR-transfected glioblastoma cells, 50 μM",Significant cytotoxicity
same,"tumor formation, ascites development and growth",[13]; 3 d 20 mg/mouse regimen initiated on the day of tumor cell injection,highly effective and inhibited tumor formation
same,tumor growth inhibition,[13]; single cycle initiated 5 d after tumor cell injection (established i.p. tumors),capable of significantly inhibiting tumor growth
same,mean tumor size in treated mice versus controls,[13]; therapy delayed for up to 3 d after tumor cell injection,significantly smaller than in controls
same,tolerability in patients,[14],well tolerated
same,incubation time after which apoptosis is induced,tumor cells,one
same,cytotoxic effect against the growth of established tumor cells,[15],significant cytotoxic effect
same,DNA debris in the sub-G0/G1 region,NIH-3T3 [16],did not increase DNA debris in sub-G0/G1 region; also recorded: did not significantly affect the appearance of DNA debris
same,effect on cell cycle distribution (in words),NIH-3T3 [16],decreased the percentage of cells in G0/G1 and increased the percentage of cells in S in a concentration-dependent manner
COc1cccc2c1C(=O)c1c(O)c3c(c(O)c1C2=O)C[C@@](O)(C(=O)CO)C[C@@H]3O[C@H]1C[C@H](N)[C@H](O)[C@H](C)O1 [adriamycin],resistance of transfected cells to standard chemotherapeutic agents,[12]; MDR-transfected versus untransfected glioblastoma cells,100–1000 times
O=S1(=O)CCNCN1 [taurultam],induction of apoptotic death,human cancer cell lines; cancer cells versus normal control cells,induced apoptotic death of cancer cells but not normal control cells
same,cytotoxic activity relative to taurolidine,human cancer cell lines; same human cancer cell lines as for taurolidine,approximately 75%
